Data from patent US20030149075A1, “Zoniporide mesylate pharmaceutical compositions and processes for improving solubility of zoniporide” (Pfizer Inc., priority 2002, published 2003).
Structures can show the parent of a compound that is named as a salt.

Legend:
[1] = Aqueous solubility of Zoniporide / Zoniporide mesylate, including pH adjustment with acids; format: physicochemical
Text: The most commercially feasible and the most pharmaceutically acceptable means, in this particular instance, for increasing solubility of Zoniporide was via pH adjustment.
Further additions of methanesulfonic acid further improved solubility with decreasing pH.
The phrase “increase (or increasing) the solubility” means increasing the solubility of Zoniporide or Zoniporide mesylate to a value greater than the solubility of Zoniporide mesylate in water (i.e. greater than about 18 mgA/mL).
(§1) The use of methanesulfonic acid to lower the pH of pharmaceutical formulations is non-traditional in the pharmaceutical field. […] Typically, the pH of pharmaceutical intravenous formulations is not lower than about pH of 3, because of injection-site toleration problems that are inherent in low pH formulations. […] Reducing the pH below about 2, however, can further increase the concentration of Zoniporide, but may cause injection site toleration issues.

[2] = Injection-site toleration of low-pH Zoniporide formulations; format: in vivo; conditions: formulations adjusted with methanesulfonic acid to as low as about pH 2
Text: as §1

| Structure (SMILES) | solubility of Zoniporide mesylate in water ([1]; in water, mgA/mL = mg/mL of active compound Zoniporide) | change in solubility on pH adjustment with methanesulfonic acid ([1]; addition of methanesulfonic acid, further additions further improved solubility with decreasing pH) | change in solubility on pH adjustment with typical pH adjusters ([1]; hydrochloric acid, sulfuric acid, phosphoric acid, aqueous solution, pH range acceptable for infusion) | injection-site toleration [2] |
| --- | --- | --- | --- | --- |
| N=C(N)NC(=O)c1cnn(-c2cccc3ncccc23)c1C1CC1 [Zoniporide mesylate] | about 18 mgA/mL |  |  |  |
| N=C(N)NC(=O)c1cnn(-c2cccc3ncccc23)c1C1CC1 [Zoniporide, N-(5-cyclopropyl-1-quinolin-5-yl-1H-pyrazole-4-carbonyl)-guanidine] |  | increase in solubility | no significant increase in solubility | without the expected injection-site toleration issues |
